Measurements: patent US20240336593A1, “Compound Having Antitumor Activity And Use Thereof” (lnnovStoneTherapeutics Limited, priority 2020, published 2024)

Target: PRMT5 (Homo sapiens (Human), UniProt O14744)
Experiment: Inhibitory activity against PRMT5 enzyme by radioisotopic method
Format: biochemical
Conditions: PRMT5 5 nM, [3H]-SAM 0.3 μM, polypeptide substrate GL-27 100 nM, room temperature
Description: Test Example 1. Test on the inhibitory activity of the compounds of the invention against PRMT5 enzyme by radioisotopic method
Test method: A 1× enzyme reaction buffer (10 mM Tris 8.0 (Sigma, Cat. No. T2694-1L), 0.01% Tween-20 (Sigma, Cat. No. P2287-100 ML), 1 mM DTT (Sigma, Cat. No. D0632-10G)) was prepared. PRMT5 (Active Motif, Cat. No. 31921) and [3H]—SAM (PerkinElmer, Cat. No. NET155V001MC) were added to the 1×enzyme reaction buffer, to prepare a 25/15× mixed solution (PRMT5 final concentration: 5 nM, [3H]—SAM final concentration: 0.3 μM). 15 μL of this solution was transferred into a 384-well microplate (Corning 384-well Polypropylene Storage Microplates, Cat. No. 3657) with various concentrations of the compounds (DMSO final concentration 1%), and incubated at room temperature for 60 minutes. A polypeptide substrate, GL-27 (Ac-[…]-K (Biotin) (GL Biochem, Cat. No. 342095)), was added into the 1×enzyme reaction buffer to prepare a 25/10× substrate solution. Then 10 μL of the polypeptide substrate solution (final concentration of the polypeptide substrate: 100 nM) was added, a reaction was stirred at room temperature for 120 minutes, and then 5 μL 6× ice cold SAM (Sigma, Cat. No. A7007-100 MG) solution was added to stop the reaction (SAM final concentration: 0.125 mM). 25 µL of the reaction mixture was transferred into a FlashPlate (Streptavidin FlashPlate HTS PLUS, High Capacity, 384-well, Perkin Elmer, Cat. No. SMP410A001PK), and incubated at room temperature for 1 h. After washed three times with distilled water containing 0.1% Tween-20, the microplate was read on a MicroBeta reader for CPM data (Counts Per Minute). […] Then the inhibition rate Inh % (Y) corresponding to each concentration (X) was input in EXCEL, and the IC50 value (the half maximal inhibitory concentration) of each compound was calculated with the XLfit plug-in according to the built-in four-parameter fitting equation Y=Bottom+(Top-Bottom)/(1+(IC50/X)[…]).

Chain of PRMT5 (O14744 whole entry): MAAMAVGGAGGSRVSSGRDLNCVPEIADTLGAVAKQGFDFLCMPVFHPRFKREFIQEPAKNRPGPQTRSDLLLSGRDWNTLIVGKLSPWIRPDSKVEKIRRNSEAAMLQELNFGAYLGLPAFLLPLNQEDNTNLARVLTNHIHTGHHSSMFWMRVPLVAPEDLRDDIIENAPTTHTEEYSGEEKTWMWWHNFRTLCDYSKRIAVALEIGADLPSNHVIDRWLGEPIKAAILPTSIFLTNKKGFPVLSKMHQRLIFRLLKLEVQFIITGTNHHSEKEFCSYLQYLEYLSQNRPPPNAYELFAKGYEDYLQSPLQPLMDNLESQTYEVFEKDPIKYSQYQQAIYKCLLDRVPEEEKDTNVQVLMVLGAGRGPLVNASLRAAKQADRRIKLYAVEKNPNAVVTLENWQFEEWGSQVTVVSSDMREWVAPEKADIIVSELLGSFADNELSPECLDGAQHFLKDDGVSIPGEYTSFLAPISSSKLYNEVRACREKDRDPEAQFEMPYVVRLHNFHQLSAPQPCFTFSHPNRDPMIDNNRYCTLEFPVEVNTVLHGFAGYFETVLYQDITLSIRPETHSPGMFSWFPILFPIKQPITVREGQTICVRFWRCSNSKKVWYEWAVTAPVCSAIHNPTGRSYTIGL
Chain of PRMT5 (Q9BQA1 whole entry partner): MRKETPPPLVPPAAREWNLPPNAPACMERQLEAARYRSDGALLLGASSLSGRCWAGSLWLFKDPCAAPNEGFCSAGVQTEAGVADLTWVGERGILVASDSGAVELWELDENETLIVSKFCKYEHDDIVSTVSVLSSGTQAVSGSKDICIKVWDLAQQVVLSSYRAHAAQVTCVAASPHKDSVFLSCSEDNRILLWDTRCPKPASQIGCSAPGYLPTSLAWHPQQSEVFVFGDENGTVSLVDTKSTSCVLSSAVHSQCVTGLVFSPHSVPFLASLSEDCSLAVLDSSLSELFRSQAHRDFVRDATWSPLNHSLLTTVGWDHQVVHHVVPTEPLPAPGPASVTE

IC50, < 100 nM:
CC(=O)N1CCC(Nc2cc(C(=O)N3CC[C@H](N4CCc5ccccc5C4)[C@@H](O)C3)ncn2)CC1 (relative stereo) [Example 17, trans-1-(4-((6-(4-(3,4-dihydroisoquinolin-2(1H)-yl)-3-hydroxypiperidine-1-carbonyl)pyrimidin-4-yl)amino)piperidin-1-yl)ethanone]
O[C@H]1CN(c2cc(Nc3ccccc3)ncn2)CC[C@@H]1N1CCc2ccccc2C1 (relative stereo) [Example 24, trans-4-(3,4-dihydroisoquinolin-2(1H)-yl)-1-(6-(phenylamino)-pyrimidin-4-yl)piperidin-3-ol]
CC(=O)N1CCC(Nc2cccc(C(=O)N3CC[C@H](N4CCc5ccccc5C4)[C@@H](O)C3)c2)CC1 (relative stereo) [Example 28, trans-1-(4-((3-(4-(3,4-dihydroisoquinolin-2(1H)-yl)-3-hydroxypiperidine-1-carbonyl)phenyl)amino)piperidin-1-yl)ethan-1-one]
O[C@H]1CN(c2cc(Nc3ccc(F)cc3)ncn2)CC[C@@H]1N1CCc2ccccc2C1 (relative stereo) [Example 30, trans-4-(3,4-dihydroisoquinolin-2(1H)-yl)-1-(6-((4-fluorophenyl)amino)-pyrimidin-4-yl)piperidin-3-ol]
O[C@H]1CN(c2cc(Nc3cccc(C4CC4)c3)ncn2)CC[C@@H]1N1CCc2ccccc2C1 (relative stereo) [Example 35, trans-1-(6-((3-cyclopropylphenyl)amino)pyrimidin-4-yl)-4-(3,4-dihydroisoquinolin-2(1H)-yl)piperidin-3-ol]
CC(C)(C)c1cccc(Nc2cc(N3CC[C@H](N4CCc5ccccc5C4)[C@@H](O)C3)ncn2)c1 (relative stereo) [Example 37, trans-1-(6-((3-t-butylphenyl)amino)pyrimidin-4-yl)-4-(3,4-dihydroisoquinolin-2(1H)-yl)piperidin-3-ol]
O[C@H]1CN(c2cc(Nc3ccc(C4CC4)cc3)ncn2)CC[C@@H]1N1CCc2ccccc2C1 (relative stereo) [Example 38, trans-1-(6-((4-cyclopropylphenyl)amino)pyrimidin-4-yl)-4-(3,4-dihydroisoquinolin-2(1H)-yl)piperidin-3-ol]
CC(C)(C)c1ccc(Nc2cc(N3CC[C@H](N4CCc5ccccc5C4)[C@@H](O)C3)ncn2)cc1 (relative stereo) [Example 39, trans-1-(6-((4-t-butylphenyl)amino)pyrimidin-4-yl)-4-(3,4-dihydroisoquinolin-2(1H)-yl)piperidin-3-ol]
O[C@H]1CN(c2cc(Nc3cccc(F)c3)ncn2)CC[C@@H]1N1CCc2ccccc2C1 (relative stereo) [Example 42, trans-1-(6-((3-fluorophenyl)amino)pyrimidin-4-yl)-4-(3,4-dihydroisoquinolin-2(1H)-yl)piperidin-3-ol]
O[C@H]1CN(c2cc(Nc3cccc(Cl)c3)ncn2)CC[C@@H]1N1CCc2ccccc2C1 (relative stereo) [Example 43, trans-1-(6-((3-chlorophenyl)amino)pyrimidin-4-yl)-4-(3,4-dihydroisoquinolin-2(1H)-yl)piperidin-3-ol]
Cc1ccccc1Nc1cc(N2CC[C@H](N3CCc4ccccc4C3)[C@@H](O)C2)ncn1 (relative stereo) [Example 46, trans-1-(6-((2-methylphenyl)amino)pyrimidin-4-yl)-4-(3,4-dihydroisoquinolin-2(1H)-yl)piperidin-3-ol]
COc1cccc(Nc2cc(N3CC[C@H](N4CCc5ccccc5C4)[C@@H](O)C3)ncn2)c1 (relative stereo) [Example 47, trans-1-(6-((3-methoxyphenyl)amino)pyrimidin-4-yl)-4-(3,4-dihydroisoquinolin-2(1H)-yl)piperidin-3-ol]
O[C@H]1CN(c2cc(Nc3ccc(N4CCOCC4)cc3)ncn2)CC[C@@H]1N1CCc2ccccc2C1 (relative stereo) [Example 49, trans-4-(3,4-dihydroisoquinolin-2(1H)-yl)-1-(6-((4-morpholinylphenyl)amino)pyrimidin-4-yl)piperidin-3-ol]
O[C@H]1CN(c2cc(Nc3ccccc3N3CCOCC3)ncn2)CC[C@@H]1N1CCc2ccccc2C1 (relative stereo) [Example 50, trans-4-(3,4-dihydroisoquinolin-2(1H)-yl)-1-(6-((2-morpholinylphenyl)-amino)pyrimidin-4-yl)piperidin-3-ol]
O[C@H]1CN(c2cc(Nc3ccccc3C3CC3)ncn2)CC[C@@H]1N1CCc2ccccc2C1 (relative stereo) [Example 51, trans-4-(3,4-dihydroisoquinolin-2(1H)-yl)-1-(6-((2-cyclopropylphenyl)amino)pyrimidin-4-yl)piperidin-3-ol]
O[C@H]1CN(c2cc(Nc3ccccc3F)ncn2)CC[C@@H]1N1CCc2ccccc2C1 (relative stereo) [Example 53, trans-4-(3,4-dihydroisoquinolin-2(1H)-yl)-1-(6-((2-fluorophenyl)amino)pyrimidin-4-yl)piperidin-3-ol]
O[C@H]1CN(c2cc(Nc3ccccc3Cl)ncn2)CC[C@@H]1N1CCc2ccccc2C1 (relative stereo) [Example 54, trans-4-(3,4-dihydroisoquinolin-2(1H)-yl)-1-(6-((2-chlorophenyl)amino)pyrimidin-4-yl)piperidin-3-ol]
COc1ccc(Nc2cc(N3CC[C@H](N4CCc5ccccc5C4)[C@@H](O)C3)ncn2)cc1 (relative stereo) [Example 55, trans-4-(3,4-dihydroisoquinolin-2(1H)-yl)-1-(6-((4-methoxyphenyl)amino)pyrimidin-4-yl)piperidin-3-ol]
CC(C)(C)c1ccccc1Nc1cc(N2CC[C@H](N3CCc4ccccc4C3)[C@@H](O)C2)ncn1 (relative stereo) [Example 56, trans-4-(3,4-dihydroisoquinolin-2(1H)-yl)-1-(6-((2-t-butylphenyl)amino)pyrimidin-4-yl)piperidin-3-ol]
COc1ccccc1Nc1cc(N2CC[C@H](N3CCc4ccccc4C3)[C@@H](O)C2)ncn1 (relative stereo) [Example 57, trans-4-(3,4-dihydroisoquinolin-2(1H)-yl)-1-(6-((2-methoxyphenyl)amino)pyrimidin-4-yl)piperidin-3-ol]
O[C@H]1CN(c2cc(Nc3ccccc3C(F)(F)F)ncn2)CC[C@@H]1N1CCc2ccccc2C1 (relative stereo) [Example 58, trans-4-(3,4-dihydroisoquinolin-2(1H)-yl)-1-(6-((2-trifluoromethylphenyl)amino)pyrimidin-4-yl)piperidin-3-ol]
O[C@H]1CN(c2cc(Nc3ccc(Cl)cc3)ncn2)CC[C@@H]1N1CCc2ccccc2C1 (relative stereo) [Example 62, trans-4-(3,4-dihydroisoquinolin-2(1H)-yl)-1-(6-((4-chlorophenyl)amino)pyrimidin-4-yl)piperidin-3-ol]
O[C@H]1CN(c2cc(Nc3ccccc3-c3ccccc3)ncn2)CC[C@@H]1N1CCc2ccccc2C1 (relative stereo) [Example 66, trans-1-(6-([1,1′-biphenyl]-2-ylamino)pyrimidin-4-yl)-4-(3,4-dihydro-isoquinolin-2(1H)-yl)piperidin-3-ol]
O[C@@H]1CN(c2cc(Nc3cccc(N4CCCC4)c3)ncn2)CC[C@H]1N1CCc2ccccc2C1 (relative stereo) [Example 67, trans-4-(3,4-dihydroisoquinolin-2(1H)-yl)-1-(6-((3-(pyrrolidin-1-yl)phenyl)amino)pyrimidin-4-yl)piperidin-3-ol]
O[C@@H]1CN(c2cc(Nc3cccc(N4CCOCC4)c3)ncn2)CC[C@H]1N1CCc2ccccc2C1 (relative stereo) [Example 73, trans-4-(3,4-dihydroisoquinolin-2(1H)-yl)-1-(6-((3-morpholinophenyl)amino)pyrimidin-4-yl)piperidin-3-ol]
O[C@@H]1CN(c2cc(Nc3cccc(-c4ccccc4)c3)ncn2)CC[C@H]1N1CCc2ccccc2C1 (relative stereo) [Example 74, trans-1-(6-([1,1′-biphenyl]-3-ylamino)pyrimidin-4-yl)-4-(3,4-dihydroisoquinolin-2(1H)-yl)piperidin-3-ol]
O[C@H]1CN(c2cc(Nc3ccc(F)c(F)c3)ncn2)CC[C@@H]1N1CCc2ccccc2C1 (relative stereo) [Example 78, trans-1-(6-((3,4-difluorophenyl)amino)pyrimidin-4-yl)-4-(3,4-dihydroisoquinolin-2(1H)-yl)piperidin-3-ol]
